These results are taken from patent publication US20210040062A1, “AZOLE-SUBSTITUTED PYRIDINE COMPOUND” (TAISHO PHARMACEUTICAL CO., LTD., priority 2016, published 2021).

In general, IC50 refers to the concentration that inhibits the measured activity by half. Low readings indicate greater potency in that assay, high ones weaker potency in that assay.

The target in one test is T1, human CYP4F2 (Homo sapiens, UniProt P78329).
T1 construct: host or cells: Escherichia coli (membrane fraction)
T1 sequence (P78329 5-520): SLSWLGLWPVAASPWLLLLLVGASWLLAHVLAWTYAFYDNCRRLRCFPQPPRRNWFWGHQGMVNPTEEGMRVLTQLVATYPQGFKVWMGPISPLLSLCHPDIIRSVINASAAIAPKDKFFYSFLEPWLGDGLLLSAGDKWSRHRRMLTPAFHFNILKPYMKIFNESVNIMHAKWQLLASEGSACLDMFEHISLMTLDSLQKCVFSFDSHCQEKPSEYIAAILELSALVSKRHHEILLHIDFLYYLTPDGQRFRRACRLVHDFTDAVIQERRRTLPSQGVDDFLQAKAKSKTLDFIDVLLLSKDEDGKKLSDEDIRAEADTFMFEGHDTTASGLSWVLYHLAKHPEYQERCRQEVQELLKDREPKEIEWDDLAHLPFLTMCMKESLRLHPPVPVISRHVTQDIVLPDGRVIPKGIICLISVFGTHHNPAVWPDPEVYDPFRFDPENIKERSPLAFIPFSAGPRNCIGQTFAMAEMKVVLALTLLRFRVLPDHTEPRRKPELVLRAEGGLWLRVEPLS
As to the kind of experiment: CYP4F2 inhibition test (Test Example 1). The class given is biochemical. As to conditions: Escherichia coli membrane fraction expressing human CYP4F2, 2.5 μM luciferine derivative, room temperature 60 minutes, luminescence. On the procedure: (§1) (1) Inhibition Test for Each Compound of the Present Invention Against 20-HETE Producing Enzymes (CYP4F2 and CYP4A11)
(§2) In the CYP4F2 inhibition test, the reaction solution containing each compound [final concentration of 50 mM, KPO4 (pH 7.4), 2.5 μM, luciferine derivative and 1 mM NADPH] was added to an Escherichia coli membrane fraction (100 μg/mL, protein) in which human CYP4F2 had been expressed. In the CYP4A11 inhibition test, the reaction solution containing each compound [final concentration of 100 mM, Tris-HCl (pH 7.5), 60 μM, luciferine derivative, 1.3 mM NADP^+, 3.3 mM Glucose 6-Phosphate, 3.3 mM MgCl2 and 0.4 U/mL Glucose 6-Phosphate dehydrogenase] was added to an Escherichia coli membrane fraction (100 μg/mL, protein) in which human CYP4A11 had been expressed. Following this, the membrane fraction was left to stand at room temperature for 60 minutes to perform an enzymatic reaction. After the reaction, a luciferine detection reagent was added, and the luminescence value was measured using a plate reader.
(§3) A: Luminescence value with addition of compound
(§4) B: Luminescence value without addition of compound and enzyme
(§5) C: Luminescence value without addition of compound

A further test concerns the target T2, human CYP4A11 (Homo sapiens, UniProt Q02928).
T2 construct: host or cells: Escherichia coli (membrane fraction)
T2 sequence (Q02928 5-519): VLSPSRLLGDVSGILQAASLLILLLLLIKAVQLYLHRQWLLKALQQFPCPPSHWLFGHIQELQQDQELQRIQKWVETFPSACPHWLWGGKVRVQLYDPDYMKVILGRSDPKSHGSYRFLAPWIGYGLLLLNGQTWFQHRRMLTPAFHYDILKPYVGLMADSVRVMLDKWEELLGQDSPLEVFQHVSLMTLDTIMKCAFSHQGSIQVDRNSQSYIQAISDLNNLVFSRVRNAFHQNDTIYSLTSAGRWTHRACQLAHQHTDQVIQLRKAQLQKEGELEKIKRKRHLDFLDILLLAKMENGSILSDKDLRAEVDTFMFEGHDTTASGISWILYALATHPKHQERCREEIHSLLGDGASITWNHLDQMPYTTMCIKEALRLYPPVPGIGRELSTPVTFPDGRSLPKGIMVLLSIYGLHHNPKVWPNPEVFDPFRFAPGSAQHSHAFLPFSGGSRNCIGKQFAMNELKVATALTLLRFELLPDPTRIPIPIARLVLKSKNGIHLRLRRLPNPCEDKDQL
As to the kind of experiment: CYP4A11 inhibition test (Test Example 1). The class given is biochemical. As to conditions: Escherichia coli membrane fraction expressing human CYP4A11, 60 μM luciferine derivative, room temperature 60 minutes, luminescence. Here is the method: as §1, §2, §3, §4, §5

Molecules are shown by their SMILES.

Take `CC(C)OC(=O)N1CC(S(=O)(=O)N2CCC[C@@H](COc3ccc(-c4ccn[nH]4)nc3)C2)C1` [Example 1-17]: the IC50 was determined as 0.0063 µM on human CYP4F2 and 0.051 µM on human CYP4A11.

Regarding `CC(=O)N1CCC[C@H]1CCOc1ccc(-c2ccn[nH]2)nc1` [Example 13-7], the IC50 at human CYP4F2 came to 2.3 µM; against human CYP4A11 it was 0.53 µM.

As to `CC(=O)N1CCC(C(=O)N2CCC[C@@H](COc3ccc(-c4ccn[nH]4)nc3)C2)CC1` [Example 3-24], the 50% inhibitory concentration (IC50) at human CYP4F2 was 0.49 µM; at human CYP4A11 it was 2 µM.

Take `CN(CCC(=O)N1CCC[C@@H](COc2ccc(-c3ccn[nH]3)nc2)C1)C(=O)OC(C)(C)C` [Example 2-11, tert-Butyl methyl {3-oxo-3-[(3R)-3-({[6-(1H-pyrazol-5-yl)pyridin-3-yl]oxy}methyl)piperidin-1-yl]propyl}carbamate]: the 50% inhibitory concentration (IC50) against human CYP4F2 was determined as 0.0095 µM; at human CYP4A11, 0.35 µM.

As for `CS(=O)(=O)c1cccc(CCOc2ccc(-c3ccn[nH]3)nc2)c1` [Example 14-13], the results for the concentration for half-maximal inhibition (IC50) at human CYP4F2 and at human CYP4A11 were 0.098 µM and 2.5 µM, respectively.

On to `O=C(c1ccccc1)N1CCC[C@@H](COc2ccc(-c3ccn[nH]3)nc2)C1` [Example 3-5], for which the results for the 50% inhibitory concentration (IC50) against human CYP4F2 and on human CYP4A11 were 0.44 µM and 0.27 µM, respectively.

Regarding `O=S(=O)(CC1CC1)c1cccc(COc2ccc(-c3ccn[nH]3)nc2)c1` [Example 18-3], the values for the IC50 on human CYP4F2 and against human CYP4A11 were 0.027 µM and 0.024 µM, respectively.

As for `O=C(CCS(=O)(=O)C(F)(F)F)N1CCC[C@@H](COc2ccc(-c3ccn[nH]3)nc2)C1` [Example 3-36], the half-maximal inhibitory concentration (IC50) on human CYP4F2 was found to be 0.09 µM; at human CYP4A11 it was 0.71 µM.

Turning to `CC(=O)N(C)[C@H]1C[C@@H](COc2ccc(-c3ccn[nH]3)nc2)C1` [Example 17-1-1, N-Methyl-N-[cis-3-({[6-(1H-pyrazol-5-yl)pyridin-3-yl]oxy}methyl)cyclobutyl]acetamide], the IC50 amounted to 0.02 µM against human CYP4F2 and 2 µM against human CYP4A11.

`COc1ccc(COc2ccc(-c3ccn[nH]3)nc2)cc1F` [54-3]: the 50% inhibitory concentration (IC50) against human CYP4F2 amounted to 0.012 µM; against human CYP4A11, 0.66 µM.

On to `CC(=O)N1CC(CCOc2ccc(-c3ccn[nH]3)nc2)C1` [Example 16-2, 1-[3-(2-{[6-(1H-Pyrazol-5-yl)pyridin-3-yl]oxy}ethyl)azetidin-1-yl]ethan-1-one], for which the results for the IC50 at human CYP4F2 and on human CYP4A11 were 0.79 µM and 10 µM, respectively.

With `O=C([C@H]1CC[C@@H](O)CC1)N1CCC[C@@H](COc2ccc(-c3ccn[nH]3)nc2)C1` [Example 3-3, (4-Hydroxycyclohexyl)-((3R)-3-{[6-(1H-pyrazol-5-yl)pyridin-3-yl]oxymethyl}piperidin-1-yl)methanone], the half-inhibitory concentration (IC50) was 0.79 µM against human CYP4F2 and 1.7 µM on human CYP4A11.

Take `CC(=O)NCCC(=O)N1CCC[C@@H](COc2ccc(-c3ccn[nH]3)nc2)C1` [Example 1-36]: the IC50 against human CYP4F2 worked out at 0.68 µM; on human CYP4A11, 0.64 µM.

Take `CC(=O)N1CCC(CCOc2ccc(-c3ccn[nH]3)nc2)CC1` [Example 4-1, 1-[4-(2-{[6-(1H-Pyrazol-5-yl)pyridin-3-yl]oxy}ethyl)piperidin-1-yl]ethan-1-one]: the half-maximal inhibitory concentration (IC50) worked out at 0.12 µM at human CYP4F2 and 0.55 µM on human CYP4A11.

Take `COc1ccc2ccc(COc3ccc(-c4ccn[nH]4)nc3)cc2n1` [Example 25-16]: the IC50 against human CYP4F2 is 0.0032 µM; against human CYP4A11, 2.2 µM.

Take `O=S(=O)(C1CC1)N1CCC[C@@H](COc2ccc(-c3ccn[nH]3)nc2)C1` [Example 10-3]: the IC50 was found to be 0.1 µM at human CYP4F2 and 0.032 µM on human CYP4A11.

Consider `Fc1cc(F)cc(COc2ccc(-c3ccn[nH]3)nc2)c1` [54-9], for which the half-maximal inhibitory concentration (IC50) against human CYP4F2 was found to be 0.13 µM; on human CYP4A11, 0.67 µM.

For the compound `CS(=O)(=O)c1cccc(COc2ccc(-c3[nH]ncc3C(F)(F)F)nc2)c1` [Example 40-1, 5-[(3-Methylsulfonylphenyl)methoxy]-2-[4-(trifluoromethyl)-1H-pyrazol-5-yl]pyridine], the IC50 on human CYP4F2 and against human CYP4A11 was 12 µM each time.

Consider `CC(C)S(=O)(=O)N1CC[C@@H](COc2ccc(-c3ccn[nH]3)nc2)C1` [Example 10-13], for which the 50% inhibitory concentration (IC50) at human CYP4F2 turned out to be 0.13 µM; on human CYP4A11 it was 0.17 µM.

For the compound `CC(=O)N1CCC(COc2ccc(-n3cncn3)nc2)CC1` [Example 45-3], the half-maximal inhibitory concentration (IC50) on human CYP4F2 is 0.026 µM; at human CYP4A11 it was 0.055 µM.

Take `O=C(CN1CCCS1(=O)=O)N1CCC[C@@H](COc2ccc(-c3ccn[nH]3)nc2)C1` [Example 3-12]: the IC50 on human CYP4F2 came out at 2.6 µM; against human CYP4A11, 2.8 µM.

`CC(=O)N1C2CCC1CC(COc1ccc(-c3ccn[nH]3)nc1)C2` (centres unmarked) [Example 14-3]: the results for the IC50 against human CYP4F2 and on human CYP4A11 were 0.99 µM and 0.26 µM, respectively.

For the compound `CC(C)(C)OC(=O)NCCCC(=O)N1CCC[C@@H](COc2ccc(-c3ccn[nH]3)nc2)C1` [Example 3-44], the IC50 against human CYP4F2 was determined as 0.018 µM; at human CYP4A11, 0.1 µM.

Take `CN(C)C(=O)N1CCC[C@@H](COc2ccc(-c3ccn[nH]3)nc2)C1` [Example 1-10]: the IC50 stood at 0.022 µM against human CYP4F2 and 0.13 µM at human CYP4A11.

With `CC(=O)N[C@H]1C[C@H](COc2ccc(-c3ccn[nH]3)nc2)C1` [Example 16-1-2, N-[trans-3-({[6-(1H-Pyrazol-5-yl)pyridin-3-yl]oxy}methyl)cyclobutyl]acetamide], the IC50 stood at 0.064 µM on human CYP4F2 and 8.1 µM on human CYP4A11.

As to `CC(=O)N1CCC(COc2cnc(-c3ccn[nH]3)c(C)c2)CC1` [Example 13-13], the IC50 against human CYP4F2 is 0.1 µM; against human CYP4A11 it was 0.15 µM.

For `CS(=O)(=O)c1cccc(COc2ccc(-c3c[nH]nn3)nc2)c1` [Example 44-1, 5-[(3-Methylsulfonylphenyl)methoxy]-2-(1H-triazol-4-yl)pyridine], the concentration for half-maximal inhibition (IC50) at human CYP4F2 came out at 9 µM; against human CYP4A11, 2.4 µM.

Consider `C1=C(c2cccc(COc3ccc(-c4ccn[nH]4)nc3)c2)CCC1` [Reference Example 53-1, 5-{[3-(Cyclopent-1-en-1-yl)phenyl]methoxyl}-2-(1H-pyrazol-5-yl)pyridine], for which the IC50 against human CYP4F2 came to 0.025 µM; on human CYP4A11, 0.21 µM.

Regarding `CC(C)(C)OC(=O)Nc1cccc(COc2ccc(-c3ccn[nH]3)nc2)c1` [Example 18-7], the IC50 came out at 0.095 µM against human CYP4F2 and 0.23 µM against human CYP4A11.

As for `Clc1ccc(COc2ccc(-c3ccn[nH]3)nc2)cc1Cl` [54-7], the IC50 came out at 0.019 µM on human CYP4F2 and 0.17 µM against human CYP4A11.

Turning to `O=C(N1CCC[C@@H](COc2ccc(-c3ccn[nH]3)nc2)C1)C(F)(F)C1(O)CCCC1` [Example 3-11], the 50% inhibitory concentration (IC50) against human CYP4F2 turned out to be 0.052 µM; against human CYP4A11, 0.19 µM.

Take `CC(=O)N1CCC(COc2ccc(-c3ncn[nH]3)nc2)CC1` [Example 43-2]: the IC50 at human CYP4F2 was found to be 0.25 µM; on human CYP4A11, 1.3 µM.

Take `CN(CC(=O)N1CCC[C@@H](COc2ccc(-c3ccn[nH]3)nc2)C1)C(=O)OC(C)(C)C` [Example 3-40]: the results for the IC50 against human CYP4F2 and against human CYP4A11 were 0.37 µM and 0.93 µM, respectively.

`CN(C)S(=O)(=O)N1CC[C@H](COc2ccc(-c3ccn[nH]3)nc2)C1` [Example 10-14]: the figures for the IC50 against human CYP4F2 and at human CYP4A11 were 0.32 µM and 0.16 µM, respectively.

Turning to `CC(C)NC(=O)N1CCC[C@@H](COc2ccc(-c3ccn[nH]3)nc2)C1` [Example 5-2], the IC50 came out at 0.45 µM at human CYP4F2 and 0.51 µM against human CYP4A11.

For the compound `CS(=O)(=O)c1cccc(COc2ccc(-n3cnnc3)nc2)c1` [Example 45-6], the half-inhibitory concentration (IC50) on human CYP4F2 amounted to 16 µM; against human CYP4A11, 5.7 µM.

As to `Fc1cccc(COc2ccc(-c3ccn[nH]3)nc2)c1` [54-16], the IC50 came to 0.022 µM against human CYP4F2 and 0.52 µM on human CYP4A11.
